Assay results: ChEMBL document CHEMBL1138425, “Beta-secretase (BACE-1) inhibitors: accounting for 10s loop flexibility using rigid active sites” (Bioorg Med Chem Lett, 2007)

Target: Beta-secretase 1 (Homo sapiens, UniProt P56817)
Assay: Inhibition of BACE1

Sequence of Beta-secretase 1 (P56817 whole entry): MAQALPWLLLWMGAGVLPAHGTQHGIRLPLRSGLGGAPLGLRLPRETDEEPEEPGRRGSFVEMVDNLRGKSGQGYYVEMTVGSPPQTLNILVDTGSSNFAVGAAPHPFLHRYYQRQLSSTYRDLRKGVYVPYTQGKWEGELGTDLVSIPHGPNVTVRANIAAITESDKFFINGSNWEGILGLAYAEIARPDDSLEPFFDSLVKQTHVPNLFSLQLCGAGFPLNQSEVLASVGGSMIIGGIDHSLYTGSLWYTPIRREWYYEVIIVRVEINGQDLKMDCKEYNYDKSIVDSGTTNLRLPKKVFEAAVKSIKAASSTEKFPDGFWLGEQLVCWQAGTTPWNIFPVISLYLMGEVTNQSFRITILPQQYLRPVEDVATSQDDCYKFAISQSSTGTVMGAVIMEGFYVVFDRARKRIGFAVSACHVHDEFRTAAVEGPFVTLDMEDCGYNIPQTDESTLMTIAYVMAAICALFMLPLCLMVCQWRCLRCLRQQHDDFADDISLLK

SMILES	Ki (read-out: Ki) [µM]	Ki (read-out: Log Ki (converted)) [µM]
CC(C)C(=O)c1cc(-c2nnc([C@](C)(N)Cc3ccccc3)o2)cc(N(C)S(C)(=O)=O)c1	16.5	15.8
CCCN(c1cc(/C=C\C2CC2C)cc(-c2nnc([C@](C)(N)Cc3ccccc3)o2)c1)S(C)(=O)=O (some centres undefined)	0.0519	0.0501
